Earlier results as cited in patent publication US20250090522A1 (priority 2021, published 2025).
“Also recorded” adds a separate entry of the source. Read-outs that look alike come from different tables or passages of the source.

How the values were obtained:
H1 receptor = H1 receptor (Homo sapiens, UniProt P35367); conditions: acidic pH
[1] = tested on: histamine induced wheal and flare
[2] = tested on: activator protein-1 (AP-1); conditions: H1 receptor-dependent and independent mechanisms
RANTES = conditions: dose-dependent manner
[3] = 421 patients with allergy/asthma treated for six months; p<0.001 for all scales
[4] = tested on: chronic idiopathic urticaria (CIU); conditions: from 5 to 20 mg/day
[5] = not given; remark: listed apart in the source
[6] = not given; remark: listed apart in the source
[7] = withdrawn from the US market in 1999
[8] = airway epithelial cells from nose and lung

Chain of H1 receptor (P35367 whole entry): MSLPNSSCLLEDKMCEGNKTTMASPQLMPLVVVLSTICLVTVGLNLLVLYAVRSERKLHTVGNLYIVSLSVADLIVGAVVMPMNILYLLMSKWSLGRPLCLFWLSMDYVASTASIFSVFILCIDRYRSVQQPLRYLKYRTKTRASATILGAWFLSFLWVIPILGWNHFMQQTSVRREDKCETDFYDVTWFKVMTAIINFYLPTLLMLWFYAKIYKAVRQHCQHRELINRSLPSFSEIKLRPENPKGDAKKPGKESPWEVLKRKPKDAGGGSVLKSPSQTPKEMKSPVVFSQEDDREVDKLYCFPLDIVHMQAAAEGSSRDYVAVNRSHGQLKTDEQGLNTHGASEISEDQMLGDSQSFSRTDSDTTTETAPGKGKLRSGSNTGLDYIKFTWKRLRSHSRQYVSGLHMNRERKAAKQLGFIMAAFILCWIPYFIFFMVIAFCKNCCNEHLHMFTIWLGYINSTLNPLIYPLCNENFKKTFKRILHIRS

## O=C(O)COCCN1CCN([C@H](c2ccccc2)c2ccc(Cl)cc2)CC1 [Levocetirizine]
H1 receptor
  enhanced receptor affinity over first generation mepyramine: 5 ×
[1]; histamine wheal and flare data
  potency among the five modern generation antihistamines: most potent
[1]; levocetirizine 5 mg per day versus fexofenadine 180 mg per day
  effectiveness versus fexofenadine: more effective than fexofenadine
[2]
  activator protein-1 (AP-1) activity: inhibit
RANTES
  tumor necrosis factor-a induced production of the chemokine RANTES: decrease
[3]
  quality of life (SF-36): improved quality of life across all treatment domains; also recorded: independently improve quality of life
[4]
  efficacy in CIU on titration: Titratable with increasing efficacy
In vivo
  time to steady state level: 40 h
[5]; studies in humans
  doses that can be safely administered: up to 30 mg/day
Human rhinovirus (HRV); [8]
  HRV viral replication: inhibit
  HRV-induced ICAM-1: inhibit
  HRV-induced cytokine expression: inhibit
Human rhinovirus (HRV); cell and clinical science
  antiviral activity against human rhinovirus-16 (HRV-16): Cell and clinical science-antiviral

## CC(C)(O)c1ccccc1CC[C@@H](SCC1(CC(=O)O)CC1)c1cccc(/C=C/c2ccc3ccc(Cl)cc3n2)c1 [Montelukast]
In vivo
  linear pharmacokinetics to: pharmacokinetics to 50 mg/day
With warfarin, theophylline, digoxin, terfenadine, oral contraceptives, or prednisone
  drug interactions: no drug interactions
[5]; adult patients, 22 weeks
  doses administered without clinically relevant side effects: up to 200 mg/day
[5]; short-term studies, approximately one week
  doses administered without clinically relevant side effects: up to 900 mg/day
[6]; compared to inhaled corticosteroids (ICS)
  risk of mental health side effects: no increased risk
[6]; patients with a psychiatric history, compared to ICS patients
  risk of outpatient depression: decreased risk

## COc1ccc(CCN2CCC(Nc3nc4ccccc4n3Cc3ccc(F)cc3)CC2)cc1 [astemizole]
SARS-CoV
  activity against SARS-CoV: astemizole was active against both
MERSCoV
  activity against MERSCoV: astemizole was active against both
[7]
  cardiac toxicity: prolongation of the QTc interval
